# Measured values taken from the kinase profiling compilation of Christmann-Franck et al. (2016).
# Key:
# Test in all cases: KINOMEscan competition binding
# Details in all cases: compound 10.0 µM
# AURKC (human) = AURKC (human) (UniProt Q9UQB9)
# CAMKK1 (human) = CAMKK1 (human) (UniProt Q8N5S9)
# CAMKK2 (human) = CAMKK2 (human) (UniProt Q96RR4)
# CIT (human) = CIT (human) (UniProt O14578)
# CLK2 (human) = CLK2 (human) (UniProt P49760)
# CSNK1E (human) = CSNK1E (human) (UniProt P49674)
# CSNK2A1 (human) = CSNK2A1 (human) (UniProt P68400)
# DAPK1 (human) = DAPK1 (human) (UniProt P53355)
# Sequence of DAPK1 (human) (P53355 whole entry, looked up): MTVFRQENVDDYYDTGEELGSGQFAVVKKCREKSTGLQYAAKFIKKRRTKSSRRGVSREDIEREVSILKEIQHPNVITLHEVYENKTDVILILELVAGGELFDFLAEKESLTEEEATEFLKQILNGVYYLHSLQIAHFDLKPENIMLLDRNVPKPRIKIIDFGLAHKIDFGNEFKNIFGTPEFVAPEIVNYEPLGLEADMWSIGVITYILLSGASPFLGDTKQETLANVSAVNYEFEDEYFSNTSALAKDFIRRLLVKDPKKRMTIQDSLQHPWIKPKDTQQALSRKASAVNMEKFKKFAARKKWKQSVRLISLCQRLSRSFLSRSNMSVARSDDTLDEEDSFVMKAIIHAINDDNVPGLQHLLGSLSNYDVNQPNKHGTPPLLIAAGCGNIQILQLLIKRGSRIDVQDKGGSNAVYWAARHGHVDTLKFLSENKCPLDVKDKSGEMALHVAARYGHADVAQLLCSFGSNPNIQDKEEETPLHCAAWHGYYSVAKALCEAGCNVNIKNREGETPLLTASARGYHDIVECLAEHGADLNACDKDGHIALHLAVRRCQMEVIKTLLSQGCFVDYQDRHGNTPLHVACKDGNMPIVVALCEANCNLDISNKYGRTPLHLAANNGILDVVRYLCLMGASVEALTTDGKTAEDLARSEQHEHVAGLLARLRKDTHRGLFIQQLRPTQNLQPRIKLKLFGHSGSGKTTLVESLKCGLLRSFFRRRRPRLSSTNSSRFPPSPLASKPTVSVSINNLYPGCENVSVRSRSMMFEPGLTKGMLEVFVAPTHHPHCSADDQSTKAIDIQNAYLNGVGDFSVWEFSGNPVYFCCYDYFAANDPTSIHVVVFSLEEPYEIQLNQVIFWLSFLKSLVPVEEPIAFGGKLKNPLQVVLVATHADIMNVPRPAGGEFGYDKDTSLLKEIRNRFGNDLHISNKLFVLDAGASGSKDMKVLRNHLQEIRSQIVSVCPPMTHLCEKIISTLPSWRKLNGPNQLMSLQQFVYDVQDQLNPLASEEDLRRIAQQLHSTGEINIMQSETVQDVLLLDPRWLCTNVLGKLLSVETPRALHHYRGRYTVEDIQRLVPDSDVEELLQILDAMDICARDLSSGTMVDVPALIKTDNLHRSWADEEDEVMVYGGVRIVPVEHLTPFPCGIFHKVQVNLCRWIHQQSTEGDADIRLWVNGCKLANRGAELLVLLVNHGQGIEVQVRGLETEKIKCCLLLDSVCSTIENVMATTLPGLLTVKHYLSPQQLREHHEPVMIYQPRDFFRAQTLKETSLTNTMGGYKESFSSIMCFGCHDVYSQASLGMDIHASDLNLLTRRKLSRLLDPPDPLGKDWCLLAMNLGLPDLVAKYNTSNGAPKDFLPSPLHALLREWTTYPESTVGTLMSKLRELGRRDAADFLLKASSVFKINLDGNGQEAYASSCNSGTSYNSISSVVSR
# [1] = tested on: EGFR (human), P00533 [G719S]
# FLT3 (human) = FLT3 (human) (UniProt P36888)
# [2] = tested on: FLT3 (human), P36888 [K663Q]
# GAK (human) = GAK (human) (UniProt O14976)
# HIPK1 (human) = HIPK1 (human) (UniProt Q86Z02)
# [3] = molecular target: JAK1 JH2 pseudokinase (human) (UniProt P23458)
# [4] = molecular target: JAK3 JH1 catalytic (human) (UniProt P52333)
# KIT (human) = KIT (human) (UniProt P10721)
# [5] = tested on: KIT (human), P10721 [D816V]
# MAP3K7 (human) = MAP3K7 (human) (UniProt O43318)
# MAPK15 (human) = MAPK15 (human) (UniProt Q8TD08)
# Sequence of MAPK15 (human) (Q8TD08 whole entry, looked up): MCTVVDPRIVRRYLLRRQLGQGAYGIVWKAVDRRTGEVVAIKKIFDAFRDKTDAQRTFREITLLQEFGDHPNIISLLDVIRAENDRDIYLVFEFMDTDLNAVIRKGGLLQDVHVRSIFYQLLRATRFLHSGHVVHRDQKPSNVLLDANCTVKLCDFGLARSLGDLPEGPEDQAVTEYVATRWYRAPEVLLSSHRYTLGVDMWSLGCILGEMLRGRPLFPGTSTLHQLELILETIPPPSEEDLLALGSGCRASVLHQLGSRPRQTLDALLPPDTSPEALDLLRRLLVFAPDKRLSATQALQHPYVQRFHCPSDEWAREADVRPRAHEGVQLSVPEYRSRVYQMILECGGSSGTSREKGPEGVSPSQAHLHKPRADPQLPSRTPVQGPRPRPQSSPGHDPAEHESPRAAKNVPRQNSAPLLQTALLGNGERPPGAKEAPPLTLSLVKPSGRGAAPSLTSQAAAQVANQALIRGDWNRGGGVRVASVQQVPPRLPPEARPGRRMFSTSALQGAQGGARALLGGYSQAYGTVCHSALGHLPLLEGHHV
# MINK1 (human) = MINK1 (human) (UniProt Q8N4C8)
# MKNK1 (human) = MKNK1 (human) (UniProt Q9BUB5)
# Sequence of MKNK1 (human) (Q9BUB5 whole entry, looked up): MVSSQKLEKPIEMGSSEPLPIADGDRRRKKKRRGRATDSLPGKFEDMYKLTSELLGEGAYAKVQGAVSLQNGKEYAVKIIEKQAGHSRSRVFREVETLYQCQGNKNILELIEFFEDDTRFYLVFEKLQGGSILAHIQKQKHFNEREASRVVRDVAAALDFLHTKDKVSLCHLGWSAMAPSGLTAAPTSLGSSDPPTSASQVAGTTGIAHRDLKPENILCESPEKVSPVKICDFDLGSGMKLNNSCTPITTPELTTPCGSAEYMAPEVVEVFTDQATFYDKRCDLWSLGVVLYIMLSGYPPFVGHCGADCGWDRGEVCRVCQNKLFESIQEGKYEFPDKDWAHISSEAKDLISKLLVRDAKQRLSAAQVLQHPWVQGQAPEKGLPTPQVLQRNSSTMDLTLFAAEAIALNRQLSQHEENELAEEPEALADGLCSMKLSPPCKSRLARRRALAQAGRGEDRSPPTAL
# MKNK2 (human) = MKNK2 (human) (UniProt Q9HBH9)
# Sequence of MKNK2 (human) (Q9HBH9 whole entry, looked up): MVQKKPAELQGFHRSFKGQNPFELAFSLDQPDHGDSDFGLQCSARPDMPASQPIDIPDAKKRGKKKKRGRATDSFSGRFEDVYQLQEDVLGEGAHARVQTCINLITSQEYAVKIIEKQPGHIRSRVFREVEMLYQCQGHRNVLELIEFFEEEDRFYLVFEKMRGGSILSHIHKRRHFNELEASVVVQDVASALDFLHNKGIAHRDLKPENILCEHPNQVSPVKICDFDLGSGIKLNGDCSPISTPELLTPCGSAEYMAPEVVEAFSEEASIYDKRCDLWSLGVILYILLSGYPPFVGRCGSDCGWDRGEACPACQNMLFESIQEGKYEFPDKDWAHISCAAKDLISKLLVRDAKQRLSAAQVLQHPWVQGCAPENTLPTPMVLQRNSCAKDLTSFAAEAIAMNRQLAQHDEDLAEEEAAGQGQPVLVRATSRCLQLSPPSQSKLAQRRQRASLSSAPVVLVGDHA
# PIK3CG (human) = PIK3CG (human) (UniProt P48736)
# PIM1 (human) = PIM1 (human) (UniProt P11309)
# Sequence of PIM1 (human) (P11309 whole entry, looked up): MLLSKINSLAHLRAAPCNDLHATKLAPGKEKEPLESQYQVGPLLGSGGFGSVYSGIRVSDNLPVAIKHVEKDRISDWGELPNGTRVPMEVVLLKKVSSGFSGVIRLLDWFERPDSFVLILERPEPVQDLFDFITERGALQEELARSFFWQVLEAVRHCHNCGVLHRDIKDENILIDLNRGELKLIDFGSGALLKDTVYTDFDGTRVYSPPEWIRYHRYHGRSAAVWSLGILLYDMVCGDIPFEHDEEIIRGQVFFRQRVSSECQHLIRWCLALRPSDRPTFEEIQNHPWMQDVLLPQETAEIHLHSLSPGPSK
# RIOK1 (human) = RIOK1 (human) (UniProt Q9BRS2)
# Sequence of RIOK1 (human) (Q9BRS2 whole entry, looked up): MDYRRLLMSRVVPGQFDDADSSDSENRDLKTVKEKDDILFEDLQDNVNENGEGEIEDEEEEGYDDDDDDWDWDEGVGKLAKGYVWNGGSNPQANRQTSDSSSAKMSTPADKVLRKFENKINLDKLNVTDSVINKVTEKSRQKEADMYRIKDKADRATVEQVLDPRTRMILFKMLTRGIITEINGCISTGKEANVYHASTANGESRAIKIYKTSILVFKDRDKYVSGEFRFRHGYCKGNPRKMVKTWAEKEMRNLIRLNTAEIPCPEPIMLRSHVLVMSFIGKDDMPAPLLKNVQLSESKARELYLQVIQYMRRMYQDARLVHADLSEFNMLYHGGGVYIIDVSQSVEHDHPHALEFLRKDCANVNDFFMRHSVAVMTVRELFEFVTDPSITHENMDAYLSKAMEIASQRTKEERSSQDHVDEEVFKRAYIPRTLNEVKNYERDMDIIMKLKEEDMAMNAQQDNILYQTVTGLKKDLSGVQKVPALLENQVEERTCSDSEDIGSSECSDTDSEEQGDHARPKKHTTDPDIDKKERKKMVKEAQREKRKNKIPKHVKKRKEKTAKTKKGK
# RIOK2 (human) = RIOK2 (human) (UniProt Q9BVS4)
# RPS6KA1 KD2 (human) = RPS6KA1 KD2 (human) (UniProt Q15418)
# STK17B (human) = STK17B (human) (UniProt O94768)
# [6] = molecular target: TYK2 JH2 pseudokinase (human) (UniProt P29597)
# ACVR2A (human) = ACVR2A (human) (UniProt P27037)
# Sequence of ACVR2A (human) (P27037 whole entry, looked up): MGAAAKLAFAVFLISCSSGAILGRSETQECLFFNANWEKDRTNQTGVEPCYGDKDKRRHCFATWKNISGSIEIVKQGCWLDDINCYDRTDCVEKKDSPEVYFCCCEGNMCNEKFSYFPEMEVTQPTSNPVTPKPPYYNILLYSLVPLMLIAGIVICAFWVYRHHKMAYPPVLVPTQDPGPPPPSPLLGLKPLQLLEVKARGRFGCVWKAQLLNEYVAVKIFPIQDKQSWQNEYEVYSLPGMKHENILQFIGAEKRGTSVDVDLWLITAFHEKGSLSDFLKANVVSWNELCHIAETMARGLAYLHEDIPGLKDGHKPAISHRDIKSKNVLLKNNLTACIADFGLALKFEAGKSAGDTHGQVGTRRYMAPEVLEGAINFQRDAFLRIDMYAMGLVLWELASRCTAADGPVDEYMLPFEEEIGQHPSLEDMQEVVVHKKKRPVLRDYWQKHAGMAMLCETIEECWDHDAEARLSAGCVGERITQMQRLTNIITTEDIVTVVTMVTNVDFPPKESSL
# DCLK3 (human) = DCLK3 (human) (UniProt Q9C098)
# [7] = tested on: KIT (human), P10721 [V559D/T670I]
# MYLK (human) = MYLK (human) (UniProt Q15746)
# RPS6KA4 KD2 (human) = RPS6KA4 KD2 (human) (UniProt O75676)
# ULK2 (human) = ULK2 (human) (UniProt Q8IYT8)
# MAP2K3 (human) = MAP2K3 (human) (UniProt P46734)
# PRKD1 (human) = PRKD1 (human) (UniProt Q15139)
# RIPK4 (human) = RIPK4 (human) (UniProt P57078)
# CDK7 (human) = CDK7 (human) (UniProt P50613)
# CLK3 (human) = CLK3 (human) (UniProt P49761)
# Sequence of CSNK1E (human) (P49674 whole entry, looked up): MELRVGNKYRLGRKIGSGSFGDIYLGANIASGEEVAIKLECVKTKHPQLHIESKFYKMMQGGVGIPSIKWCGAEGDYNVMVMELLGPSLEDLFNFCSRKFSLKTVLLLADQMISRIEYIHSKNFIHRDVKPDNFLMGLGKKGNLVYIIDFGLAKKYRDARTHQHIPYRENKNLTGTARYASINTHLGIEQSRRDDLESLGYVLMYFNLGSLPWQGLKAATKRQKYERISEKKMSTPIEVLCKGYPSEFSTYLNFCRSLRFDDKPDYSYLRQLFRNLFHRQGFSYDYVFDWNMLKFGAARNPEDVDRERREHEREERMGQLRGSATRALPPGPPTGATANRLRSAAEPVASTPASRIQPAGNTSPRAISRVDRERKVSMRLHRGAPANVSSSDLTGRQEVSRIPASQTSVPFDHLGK
# Sequence of AURKC (human) (Q9UQB9 whole entry, looked up): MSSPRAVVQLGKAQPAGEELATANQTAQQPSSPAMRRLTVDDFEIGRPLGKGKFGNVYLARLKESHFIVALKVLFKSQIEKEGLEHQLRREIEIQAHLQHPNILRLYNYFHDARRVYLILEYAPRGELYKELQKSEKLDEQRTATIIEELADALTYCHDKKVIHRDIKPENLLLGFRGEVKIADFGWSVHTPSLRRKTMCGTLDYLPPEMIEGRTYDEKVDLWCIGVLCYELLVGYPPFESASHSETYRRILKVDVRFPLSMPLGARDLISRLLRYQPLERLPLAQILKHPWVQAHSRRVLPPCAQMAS
Structure (SMILES),"kinase still bound, per cent of control (AURKC (human)) [%]","kinase still bound, per cent of control (CAMKK1 (human)) [%]","kinase still bound, per cent of control (CAMKK2 (human)) [%]","kinase still bound, per cent of control (CIT (human)) [%]","kinase still bound, per cent of control (CSNK1E (human)) [%]","kinase still bound, per cent of control (DAPK1 (human)) [%]","kinase still bound, per cent of control [1] [%]","kinase still bound, per cent of control (GAK (human)) [%]","kinase still bound, per cent of control (KIT (human)) [%]","kinase still bound, per cent of control [5] [%]","kinase still bound, per cent of control (MAPK15 (human)) [%]","kinase still bound, per cent of control (MINK1 (human)) [%]","kinase still bound, per cent of control (MKNK1 (human)) [%]","kinase still bound, per cent of control (MKNK2 (human)) [%]","kinase still bound, per cent of control (PIM1 (human)) [%]","kinase still bound, per cent of control (RIOK1 (human)) [%]","kinase still bound, per cent of control (STK17B (human)) [%]","kinase still bound, per cent of control (ACVR2A (human)) [%]","kinase still bound, per cent of control (DCLK3 (human)) [%]","kinase still bound, per cent of control [7] [%]",further results
O=C1NC(=S)S/C1=C\c1ccc(-c2cncc3ccccc23)o1,5.2,5.6,14,28,7,9.6,27,1.3,21,9.6,9,33,33,23,2.7,3.7,0.25,–,–,–,"kinase still bound, per cent of control (CLK2 (human)): 3.1%; kinase still bound, per cent of control (CSNK2A1 (human)): 3.2%; kinase still bound, per cent of control (FLT3 (human)): 16%; kinase still bound, per cent of control [2]: 14%; kinase still bound, per cent of control (HIPK1 (human)): 3.4%; kinase still bound, per cent of control [3]: 8.5%; kinase still bound, per cent of control [4]: 21%; kinase still bound, per cent of control (MAP3K7 (human)): 28%; kinase still bound, per cent of control (PIK3CG (human)): 16%; kinase still bound, per cent of control (RIOK2 (human)): 3.4%; kinase still bound, per cent of control (RPS6KA1 KD2 (human)): 2.6%; kinase still bound, per cent of control [6]: 5%"
CS(=O)(=O)Nc1ccc(-c2ncc(/C=C3\SC(=N)NC3=O)s2)cc1,–,–,29,–,–,4,–,2.8,–,4.4,–,1.3,13,13,2.8,27,24,18,22,32,"kinase still bound, per cent of control (MYLK (human)): 19%; kinase still bound, per cent of control (RPS6KA4 KD2 (human)): 1.2%; kinase still bound, per cent of control (ULK2 (human)): 24%"
CS(=O)(=O)Nc1ccc(-c2cncc(/C=C3\SC(=N)NC3=O)c2)cc1,16,–,–,0.8,2.8,–,24,–,8.2,2.2,13,4.4,0.55,24,–,7.8,5.4,0.9,0.9,31,"kinase still bound, per cent of control (HIPK1 (human)): 19%; kinase still bound, per cent of control (MAP2K3 (human)): 16%; kinase still bound, per cent of control (MAP3K7 (human)): 3.4%; kinase still bound, per cent of control (PIK3CG (human)): 32%; kinase still bound, per cent of control (PRKD1 (human)): 22%; kinase still bound, per cent of control (RIOK2 (human)): 23%; kinase still bound, per cent of control (RIPK4 (human)): 5.8%; kinase still bound, per cent of control (ULK2 (human)): 29%"
N=C1NC(=O)/C(=C/c2ccc(-c3cncc4ccccc34)o2)S1,0.3,3.4,7.4,19,1.4,5.9,26,0.9,10,3.8,10,–,0.8,–,0.7,1.4,0.2,8.6,30,14,"kinase still bound, per cent of control (CDK7 (human)): 14%; kinase still bound, per cent of control (CLK2 (human)): 1.6%; kinase still bound, per cent of control (CLK3 (human)): 18%; kinase still bound, per cent of control (CSNK2A1 (human)): 6.4%; kinase still bound, per cent of control (FLT3 (human)): 10%; kinase still bound, per cent of control [2]: 8.1%; kinase still bound, per cent of control [3]: 13%; kinase still bound, per cent of control (MYLK (human)): 19%; kinase still bound, per cent of control (PRKD1 (human)): 16%; kinase still bound, per cent of control (RIPK4 (human)): 4.7%; kinase still bound, per cent of control (RPS6KA1 KD2 (human)): 11%; kinase still bound, per cent of control (RPS6KA4 KD2 (human)): 27%"
